Assay results: patent US12582604B2, “Stable solid dispersion of a B-RAF kinase dimer inhibitor, methods of preparation, and uses therefor” (BEIGENE, LTD., priority 2019, dated 2026)
In brackets after ≈: the same amount, converted by molar mass. Entries after “also recorded” stand apart in the source; their conditions may differ.

Assays:
[1] = Pharmacokinetic comparison of Forms A-H in rats (Example 14); assay type: in vivo
From the text: Pharmacokinetic Comparison of Form a, B, C, D, E, F, G and H in Rats
(§1) Powder of Form A with particle sizes of D90=62.4 μm after micronization. The material content (purity) was not less than 98.0%.
Powder of Form B with particle sizes of D90=69.9 μm, D10=3.5 um, […] after micronization. The material content (purity) was not less than 98.0%.
Powders of Forms C, D, E, F, G and H with particle sizes of D90<600 μm after micronization. The material content (purity) was not less than 98.0%.
Rats, male and female, were used in this study.
An appropriate amount of each substance was weighted and was dispersed in 0.5% sodium carboxymethyl cellulose. A suspension was prepared at the desired concentration of Compound 1 for each substance. All the doses and concentrations of Compound 1 were calculated with freebase in this study.
(§2) The dosing solutions were freshly prepared prior to dose administration. The actual body weights and actual volume injected were recorded accordingly. The rats were fasted overnight and were allowed to intake food four hours after dosing. Each suspension was administrated orally to rats at a dose ranged from 0.5 to 5 mg/kg. Blood samples (˜1.0 mL) were collected at pre-dose and at different times up to 36 hours post-dosing via cephalic vein plexus. Whole blood was processed by centrifugation and plasma samples were collected and kept at freezer prior to analysis. Plasma samples were processed by protein precipitation. Concentrations of Compound 1 in the plasma samples were determined using a validated liquid chromatography-tandem mass spectrometry (LC-MS/MS) method. The plasma concentration-time data were analyzed using a non-compartmental model using Pharsight WinNonlin.

[2] = Pharmacokinetic comparison of Form A and Form F in dogs (Example 15); assay type: in vivo, Beagle dogs; details: for half-life: read-out: T½ (converted)
Protocol: Pharmacokinetic Comparison of Form A and Form F in Dogs
as §1
Powder of Form F with particle sizes of D90<200 μm after micronization. The material content (purity) was not less than 98.0%.
Beagle dogs, male and female, were used in this study.
An appropriate amount of each substance was weighed and was disperse in 0.5% sodium carboxymethyl cellulose. A suspension was prepared at the desired concentration of Compound 1 for each substance. All the doses and concentrations of Compound 1 were calculated with freebase in this study.
as §2, with “dogs” for “rats”

[3] = Pharmacokinetic comparison of Forms A-H in rats (Example 14); assay type: in vivo; details: rat, plasma
[4] = Long-term and accelerated stability studies (impurities, optical purity, XRPD, water content); assay type: physicochemical
Protocol: Chiral purity and polymorph results had no changes when stored at 25° C./60% RH for up to 24 months.

[5] = Solubility measurement (shaking 200 rpm at 25° C., HPLC); assay type: physicochemical
[6] = Long-term and accelerated stability studies (impurities, optical purity, XRPD, water content); assay type: physicochemical; details: for Total impurities T0: initial
[7] = Hygroscopicity by dynamic vapor sorption (DVS); assay type: physicochemical; details: for Hygroscopicity (in words): DVS, 80% RH
[8] = tested on: RAF family of serine/threonine kinases; details: especially against BRAF/CRAF dimers; cited from earlier work
[9] = both sexes, beagle, dog, plasma, 0.5 mg/kg, 0.5 mpk IV
[10] = both sexes, beagle, dog, plasma, 5 mg/kg, 5 mpk PO
[11] = both sexes, iv, 1 mg/kg, 1 mpk IV
[12] = 25° C./60% RH up to 24 months and 40° C./75% RH up to 6 months

Compound: O=C1CCc2c(Oc3ccc4c(c3)[C@H]3[C@H](NC(=O)Nc5cc(F)c(F)cc5F)[C@H]3O4)ccnc2N1 [Form A, 1-((1S,1aS,6bS)-5-((7-oxo-5,6,7,8-tetrahydro-1,8-naphthyridin-4-yl)oxy)-1a,6b-dihydro-1H-cyclopropa[b]benzofuran-1-yl)-3-(2,4,5-trifluorophenyl)urea]
- F ([1]; 1 mpk IV (reference)): 100%
- AUC(0-t) ([1]; 5 mpk PO, 5 mg/kg): 5716 ng·h/mL
- half-life ([1]; both sexes, rat, plasma, po, 5 mg/kg, 5 mpk PO): 176 min
- F ([2]; 0.5 mpk IV (reference)): 100%
- F ([2]; 5 mpk PO): 34%
- AUC(0-t) [2, 9]: 6870 ng·h/mL
- clearance [2, 9]: 1.22 mL/min/kg
- half-life [2, 9]: 660 min
- Vd ([2]; both sexes, beagle, dog, plasma, 0.5 mg/kg, 0.5 mpk IV, read-out: Vdss): 0.97 L/kg
- AUC(0-t) [2, 10]: 23400 ng·h/mL
- Cmax [2, 10]: 1120 ng/mL
- half-life [2, 10]: 660 min
- clearance ([3]; both sexes, 1 mg/kg, 1 mpk IV): 3.15 mL/min/kg
- Vd ([3]; both sexes, 1 mg/kg, 1 mpk IV, read-out: Vdss): 1.15 L/kg
- AUC(0-t) [3, 11]: 5330 ng·h/mL
- half-life [3, 11]: 252 min
- Time at which solid form is still stable by XRPD ([4]; 25° C./60% RH): ≥ 6 months
- Optical purity change [4, 12]: no optical purity changes
- solubility ([5]; 0.1N HCl, simulated gastric fluid): 20 µg/mL (≈ 41.5 µM)
- solubility ([5]; 5% HTAB, aqueous with cosolvent or surfactant or cyclodextrin): 960 µg/mL (≈ 1990 µM)
- solubility ([5]; 5% Pluronic F68, aqueous with cosolvent or surfactant or cyclodextrin): < 0.1 µg/mL
- solubility ([5]; 5% SLS, aqueous with cosolvent or surfactant or cyclodextrin): 1000 µg/mL (≈ 2070 µM)
- solubility ([5]; 20% hydroxypropyl-β-cyclodextrin (HP-β-CD), aqueous with cosolvent or surfactant or cyclodextrin): 550 µg/mL (≈ 1140 µM)
- solubility ([5]; 20% sulfobutyl ether-β-cyclodextrin (SBE-β-CD), aqueous with cosolvent or surfactant or cyclodextrin): 550 µg/mL (≈ 1140 µM)
- solubility at 2 h ([5]; DMA, organic solvent or mixture): > 372 mg/mL
- solubility at 2 h ([5]; DMSO, organic solvent or mixture): > 95.4 mg/mL
- solubility ([5]; n-heptane, organic solvent or mixture): < 0.1 µg/mL
- solubility ([5]; pH 1.2 buffer solution, pH 1.2, simulated gastric fluid): 15 µg/mL (≈ 31.1 µM)
- solubility ([5]; pH 4.5 buffer, pH 4.5, aqueous buffer): < 0.1 µg/mL
- solubility ([5]; pH 6.8 buffer, pH 6.8, aqueous buffer): < 0.1 µg/mL
- solubility ([5]; pH 7.4 buffer solution, pH 7.4, aqueous buffer): < 0.1 µg/mL
- solubility ([5]; water): < 0.1 µg/mL
- Storage time without obvious decomposition [6]: over 12 months
- Total impurities T0 ([6]; 25° C./60% RH study): 1.0%
- Chemical purity change [6, 12]: no significant chemical purity change
- Crystalline form change by XRPD ([6]; 25° C./60% RH, 12 months): changed to the crystalline form; also recorded: from Form A to Form A*
- Total impurities T24 ([6]; 25° C./60% RH, 24 months): 1.0%
- Time at which solid form is still stable by XRPD ([6]; 40° C./75% RH): ≥ 6 months
- Total impurities T0 ([6]; 40° C./75% RH study): 1.0%
- Total impurities T6 ([6]; 40° C./75% RH, 6 months): 1.0%
- Hygroscopicity (in words) [7]: moderately hygroscopic
- Crystalline form after DVS ([7]; after dynamic vapor sorption): changed to the Crystalline Form A*

Compound: O=C1CCc2c(Oc3ccc4c(c3)[C@H]3[C@H](NC(=O)Nc5cc(F)c(F)cc5F)[C@H]3O4)ccnc2N1 [Compound 1, 1-((1S,1aS,6bS)-5-((7-oxo-5,6,7,8-tetrahydro-1,8-naphthyridin-4-yl)oxy)-1a,6b-dihydro-1H-cyclopropa[b]benzofuran-1-yl)-3-(2,4,5-trifluorophenyl)urea]
- bioavailability ([3]; po, 5 mpk, crystalline form, preliminary DMPK studies): ~20%
- Inhibitory activity (in words) [8]: potent inhibitory activity
- Solubility (in words) ([5]; crystalline or neat amorphous form, water, 0.1 HCl, buffer solutions of different pH): poor solubility
- Chemical purity change ([6]; crystalline form, 25° C./60% RH up to 12 months): does not show any significant chemical purity change
- Optical purity change ([6]; crystalline form, 25° C./60% RH up to 12 months and 40° C./75% RH up to 6 months): no optical purity changes
- Weight gain (water gain) by DVS ([7]; 80% relative humidity): 4.96%
- Hygroscopicity (in words) [7]: moderately hygroscopic

Compound: O=C1CCc2c(Oc3ccc4c(c3)[C@H]3[C@H](NC(=O)Nc5cc(F)c(F)cc5F)[C@H]3O4)ccnc2N1 [Form B, 1-((1S,1aS,6bS)-5-((7-oxo-5,6,7,8-tetrahydro-1,8-naphthyridin-4-yl)oxy)-1a,6b-dihydro-1H-cyclopropa[b]benzofuran-1-yl)-3-(2,4,5-trifluorophenyl)urea]
- AUC(0-t) ([1]; 5 mpk PO, 5 mg/kg): 13134 ng·h/mL
- T1/2 ([1]; 5 mpk PO, 5 mg/kg): 2.47 h
- Cmax and AUC0-inf compared with the amorphous solid dispersions (in words) ([1]; PO): lower
- Cmax, AUC0-inf and F(%) compared to crystalline Form A (in words) ([1]; PO): higher
- Time at which solid form is still stable by XRPD (no crystalline peaks) ([6]; 40° C./75% RH): ≥ 14 days

Compound: O=C1CCc2c(Oc3ccc4c(c3)[C@H]3[C@H](NC(=O)N[C@@H]5[C@H]6Oc7ccc(Oc8ccnc9c8CCC(=O)N9)cc7[C@@H]56)[C@H]3O4)ccnc2N1 [Impurity-1]
- Solubility (in words) ([5]; water and other common recrystallization solvents): very low solubilities
